Counter-ions that a name gives are not always drawn. Like-named read-outs stand apart in the source and are kept apart here.
Columns and labels:
[1] = test system: mice treated with aconitin; experiment: animal or person; format: in vivo; conditions: Mus musculus, read-out: Delay in the appearance time of arrhythmia
Experimental: Arrhytmia was induced in male mice, weighing 20 to 25 g, by treating them continuously, at a rate of 0.2 ml/min with an infusion containing 5 μg/kg of aconitin. The test compound was administered to the animals either intraperitoneally (by injecting it into the abdominal cavity) 15 minutes before the start of the infusion, or orally 60 minutes before the onset of the infusion. The time of the appearance of arrhythmia was recorded, and the percentage of delay was calculated in relation to the data obtained in the controls, pretreated with 0.9 percent sodium chloride solution only [B. Vargaftig and J. L. Coignet: European J. of Pharmacol. 6, 49 to 55 (1969); N. K. Dadkar and B. K. Bhattachariya: Arch. Int. Pharmacodyn. 212, 297 to 301 (1974); D. U. Nwagwu, T. L. Holcslaw and S. J. Stohs: Arch. Int. Pharmacodyn. 229, 219 to 226 (1977)].

[2] = test system: right ventricle of isolated rabbit heart; experiment: Electrophysiological tests in the isolated rabbit heart, right ventricle; conditions: n = 4
Experimental: (§1) Hearts of rabbits of both sexes, weighing 1 to 2 kg, were removed, the right and left auricles and a segment of the right ventricle were prepared and placed into a vessel filled with nutrient solution. Bipolar platinum electrodes (a stimulating electrode and a lead electrode) were placed on the organ strips, and the electric stimulus threshold and the speed of impulse conduction were measured. The effective refractory period was determined on the basis of the maximal driving frequency.

[3] = test system: left auricle of isolated rabbit heart; experiment: Electrophysiological tests in the isolated rabbit heart, left auricle; conditions: for Change in conduction time / Change in electric stimulus threshold / Change in max. driving frequency: n = 4
Experimental: as §1

[4] = in vivo; conditions: mouse
[5] = test system: anaesthesized cats, fibrillation threshold of the heart; experiment: Determination of the fibrillation threshold in anaesthetized cats; format: in vivo; conditions: cat
Excerpt: The chests of the cats were opened under chloralose-urethane anaesthesia, a bipolar stimulating electrode was fixed onto the heart, and the heart was stimulated electrically with a frequency of 20 Hz, under continuously increasing current strength, until a fibrillo-flattern could be observed. This current strength was considered as the fibrillation threshold of the animal.

SMILES: Cc1ccccc1NNC(=N)N(C)C [Example 1, 1-(2-Methylphenyl)-4,4-dimethyl-aminoguanidine hydrochloride]
- change in vivo at 25 mg/kg ([1]; ip): 164%
- change in vivo at 50 mg/kg ([1]; ip): 174%
- change in vivo at 50 mg/kg ([1]; po): 102%
- change in vivo at 100 mg/kg ([1]; po): 197%
- Change in conduction time ([2]; 0.25 mg/l): +0.2%
- Change in electric stimulus threshold ([2]; 0.25 mg/l): 0%
- Change in max. driving frequency ([2]; 0.25 mg/l): -0.88%
- Change in conduction time ([2]; 0.5 mg/l): +3.31%
- Change in electric stimulus threshold ([2]; 0.5 mg/l): -1.43%
- Change in max. driving frequency ([2]; 0.5 mg/l): -0.38%
- Change in conduction time ([2]; 1.0 mg/l): +14.84%
- Change in electric stimulus threshold ([2]; 1.0 mg/l): +5.42%
- Change in max. driving frequency ([2]; 1.0 mg/l): -1.82%
- Change in conduction time ([2]; 2.0 mg/l): +36.75%
- Change in electric stimulus threshold ([2]; 2.0 mg/l): +20.6%
- Change in max. driving frequency ([2]; 2.0 mg/l): -10.33%
- Change in conduction time ([2]; 4.0 mg/l): +52.45%
- Change in electric stimulus threshold ([2]; 4.0 mg/l): +23.6%
- Change in max. driving frequency ([2]; 4.0 mg/l): -17.43%
- Change in conduction time ([2]; 8.0 mg/l): +77.82%
- Change in electric stimulus threshold ([2]; 8.0 mg/l): +35.8%
- Change in max. driving frequency ([2]; 8.0 mg/l): -36.8%
- Change in conduction time ([3]; 0.25 mg/l): +0.54%
- Change in electric stimulus threshold ([3]; 0.25 mg/l): 0%
- Change in max. driving frequency ([3]; 0.25 mg/l): -0.08%
- Change in conduction time ([3]; 0.5 mg/l): +8.66%
- Change in electric stimulus threshold ([3]; 0.5 mg/l): -1.82%
- Change in max. driving frequency ([3]; 0.5 mg/l): -0.98%
- Change in conduction time ([3]; 1.0 mg/l): +12.55%
- Change in electric stimulus threshold ([3]; 1.0 mg/l): -11.8%
- Change in max. driving frequency ([3]; 1.0 mg/l): -9.21%
- Change in conduction time ([3]; 2.0 mg/l): +28.42%
- Change in electric stimulus threshold ([3]; 2.0 mg/l): +30.84%
- Change in max. driving frequency ([3]; 2.0 mg/l): -17.09%
- Change in conduction time ([3]; 4.0 mg/l): +47.87%
- Change in electric stimulus threshold ([3]; 4.0 mg/l): +43.4%
- Change in max. driving frequency ([3]; 4.0 mg/l): -28.82%
- Change in conduction time ([3]; 8.0 mg/l): +114.03%
- Change in electric stimulus threshold ([3]; 8.0 mg/l): +83.9%
- Change in max. driving frequency ([3]; 8.0 mg/l): -59.1%
- inhibition at 0.25 µg/mL ([3]; Oryctolagus cuniculus, 0.25 mg/l, n = 4, read-out: Contractility): 2.61%
- inhibition at 0.5 µg/mL ([3]; Oryctolagus cuniculus, 0.5 mg/l, n = 4, read-out: Contractility): 7.57%
- inhibition at 1 µg/mL ([3]; Oryctolagus cuniculus, 1.0 mg/l, n = 4, read-out: Contractility): 15.5%
- inhibition at 2 µg/mL ([3]; Oryctolagus cuniculus, 2.0 mg/l, n = 4, read-out: Contractility): 18.1%
- inhibition at 4 µg/mL ([3]; Oryctolagus cuniculus, 4.0 mg/l, n = 4, read-out: Contractility): 27.1%
- inhibition at 8 µg/mL ([3]; Oryctolagus cuniculus, 8.0 mg/l, n = 4, read-out: Contractility): 37.9%
- LD50 ([4]; ip): 81 mg/kg
- LD50 ([4]; po): 203 mg/kg

SMILES: Cc1cccc(C)c1NNC(=N)N(C)C [Example 5]
- change in vivo at 25 mg/kg ([1]; ip): 113%
- change in vivo at 50 mg/kg ([1]; ip): 155%
- change in vivo at 100 mg/kg ([1]; po): 111%
- Percentual change in the fibrillation threshold ([5]; 0.5 mg/kg i.v., 2 min following treatment): +18.75%
- Percentual change in the fibrillation threshold ([5]; 0.5 mg/kg i.v., 10 min following treatment): +40.75%
- Percentual change in the fibrillation threshold ([5]; 0.5 mg/kg i.v., 20 min following treatment): +37.6%
- Percentual change in the fibrillation threshold ([5]; 1.0 mg/kg i.v., 2 min following treatment): +35.2%
- Percentual change in the fibrillation threshold ([5]; 1.0 mg/kg i.v., 10 min following treatment): +55.2%
- Percentual change in the fibrillation threshold ([5]; 1.0 mg/kg i.v., 20 min following treatment): +48.4%
- Percentual change in the fibrillation threshold ([5]; 2.0 mg/kg i.v., 2 min following treatment): +101.1%
- Percentual change in the fibrillation threshold ([5]; 2.0 mg/kg i.v., 10 min following treatment): +93.0%
- Percentual change in the fibrillation threshold ([5]; 2.0 mg/kg i.v., 20 min following treatment): +94.15%
- Percentual change in the fibrillation threshold ([5]; 4.0 mg/kg i.v., 2 min following treatment): +153.3%
- Percentual change in the fibrillation threshold ([5]; 4.0 mg/kg i.v., 10 min following treatment): +125.65%
- Percentual change in the fibrillation threshold ([5]; 4.0 mg/kg i.v., 20 min following treatment): +124.0%
- Percentual change in the fibrillation threshold ([5]; 8.0 mg/kg i.v., 2 min following treatment): +392.8%
- Percentual change in the fibrillation threshold ([5]; 8.0 mg/kg i.v., 10 min following treatment): +354.5%
- Percentual change in the fibrillation threshold ([5]; 8.0 mg/kg i.v., 20 min following treatment): +310.25%
- Percentual change in the fibrillation threshold ([5]; 20 mg/kg i.d., 10 minutes following treatment): +22.2%
- Percentual change in the fibrillation threshold ([5]; 20 mg/kg i.d., 20 minutes following treatment): +29.0%
- Percentual change in the fibrillation threshold ([5]; 20 mg/kg i.d., 30 minutes following treatment): +94.0%
- Percentual change in the fibrillation threshold ([5]; 20 mg/kg i.d., 40 minutes following treatment): +103.7%
- Percentual change in the fibrillation threshold ([5]; 20 mg/kg i.d., 50 minutes following treatment): +100.4%
- Percentual change in the fibrillation threshold ([5]; 20 mg/kg i.d., 60 minutes following treatment): +105.8%
- Percentual change in the fibrillation threshold ([5]; 20 mg/kg i.d., 70 minutes following treatment): +100.3%
- Percentual change in the fibrillation threshold ([5]; 20 mg/kg i.d., 80 minutes following treatment): +121.5%
- Percentual change in the fibrillation threshold ([5]; 20 mg/kg i.d., 90 minutes following treatment): +132.8%
- Percentual change in the fibrillation threshold ([5]; 20 mg/kg i.d., 100 minutes following treatment): +132.3%
- LD50 ([4]; ip): 130 mg/kg
- LD50 ([4]; po): 400 mg/kg

From patent publication US4731383A, “Aminoguanidine compounds, their compositions and pharmaceutical uses” (Biogal Gyogyszergyar, priority 1983, dated 1988)
